According to PMC3303154 (2011):

Biological target: 20S proteasome (chymotrypsin-like activity) (Homo sapiens, UniProt P28074)
Test: fluorogenic Suc-LLVY-AMC peptidase assay with purified […] proteasome
Type: biochemical

Chain of 20S proteasome (chymotrypsin-like activity) (P28074 60-263): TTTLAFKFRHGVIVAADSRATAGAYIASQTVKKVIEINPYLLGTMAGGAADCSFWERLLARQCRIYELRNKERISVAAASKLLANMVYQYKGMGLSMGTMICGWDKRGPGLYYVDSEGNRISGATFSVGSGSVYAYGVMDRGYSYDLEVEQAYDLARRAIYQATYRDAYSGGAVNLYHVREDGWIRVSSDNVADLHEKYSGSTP

## CC(C)=CC[C@]12Oc3cc(O)c([C@H]4C=C(C)C[C@H](c5ccc(O)cc5O)[C@H]4C(=O)c4ccc(O)cc4O)c(O)c3C(=O)[C@@]1(O)Oc1cc(O)ccc12 [Sanggenon C]
  IC50: 4 µM
